We go through six molecules from patent US4477451A, “5,6-Dihydro-11-methylenemorphanthridin-6-ones, their preparation and drugs containing these compounds” (BASF Aktiengesellschaft, priority 1982, dated 1984).

In this experiment the test system is gastric ulcers (ulcerous mucosal lesions). Kind of experiment: antiulcerogenic action on the rat (reserpine/indometacin/cold-induced gastric ulcers, oral test substance). Format: in vivo, female Sprague-Dawley rats. To be noted: for ED50: Rattus norvegicus, oral, dose which reduces the ulcerous area by 50%, reserpine 1 mg/kg i.p., indometacin 21.5 mg/kg i.p., 6 hours at 8° C., read-out: Antiulcerogenic action on the rat, ED 50%; for Antiulcerogenic action on the rat, Relative activity: relative to pirenzepine = 1.0. The method, then:
To investigate the antiulcerogenic action, 1 mg/kg of reserpine is administered intraperitoneally to groups of 10 female Sprague-Dawley rats each weighing 160-180 g, and the rats then remain without food for 18 hours (water ad libitum). This period is followed by intraperitoneal administration of 21.5 mg/kg of indometacin and oral administration of the test substance to the animals, which are then kept for 6 hours at 8° C., after which they are sacrificed. The stomachs are removed, and the area of ulcerous mucosal lesions is determined. The dose which reduces the ulcerous area by 50%, ie. the ED 50%, is determined from the linear regression between the logarithms of the doses administered and the relative reduction in the area of ulcerations, based on the control animals.
Pirenzepine (5,11-dihydro-11-[(4-methylpiperazin-1-yl)-acetyl]-6H-pyrido[2,3-b][1,4]benzodiazepin-6-one; German Pat. No. 1,795,183) is used as the reference substance.

As for `O=C(C=C1c2ccccc2NC(=O)c2ccccc21)OCCCN1CCOCC1` (mixture of isomers) [Example 14, cis,trans-11-(3-Morpholin-1-yl)-propoxycarbonylmethylene-5,6-dihydromorphanthridin-6-one], the ED50 is 0.83 mg/kg and the “Antiulcerogenic action on the rat, Relative activity” value turned out to be 7.8.

With `CN1CCN(CC(=O)N2c3ccccc3C(=O)Nc3cccnc32)CC1` [pirenzepine, 5,11-dihydro-11-[(4-methylpiperazin-1-yl)-acetyl]-6H-pyrido[2,3-b][1,4]benzodiazepin-6-one, reference compound], the ED50 was 6.5 mg/kg.

As for `CN(C)CCOC(=O)C=C1c2ccccc2NC(=O)c2ccccc21` (mixture of isomers) [Example 2, cis,trans-11-(2-Dimethylamino)-ethoxycarbonylmethylene-5,6-dihydromorphanthridin-6-one], the ED50 amounted to 0.64 mg/kg and the “Antiulcerogenic action on the rat, Relative activity” value is reported as 10.2.

Turning to `O=C(/C=C1\c2ccccc2NC(=O)c2ccccc21)OCCN1CCOCC1` [Example 1, trans, trans-11-(2-morpholin-1-yl)-ethoxycarbonylmethylene-5,6-dihydromorphanthridin-6-one], the ED50 worked out at 5.3 mg/kg and the “Antiulcerogenic action on the rat, Relative activity” value was 1.2.

As for `O=C(/C=C1/c2ccccc2NC(=O)c2ccccc21)OCCN1CCOCC1` [Example 1, cis, cis-11-(2-morpholin-1-yl)-ethoxycarbonylmethylene-5,6-dihydromorphanthridin-6-one], the ED50 amounted to 1.5 mg/kg and the “Antiulcerogenic action on the rat, Relative activity” value was found to be 4.3.

Turning to `O=C(C=C1c2ccccc2NC(=O)c2ccccc21)OCCN1CCOCC1` (mixture of isomers) [Example 1, cis,trans-11-(2-Morpholin-1-yl)-ethoxycarbonylmethylene-5,6-dihydromorphanthridin-6-one], the ED50 turned out to be 1.9 mg/kg and the “Antiulcerogenic action on the rat, Relative activity” value stood at 3.4.
